Test results from PMC11308363, “Bioinformatic, Enzymatic, and Structural Characterization of Trichuris suis Hexosaminidase HEX-2” (Biochemistry, 2024).

B1: T. suis HEX-2 (Trichuris suis) (protein)
chain: SNVFIPKRRIVHLDLKGAAPKPQHFRAFFEYFVRIGATGILIEWEDMFPYEGRLSDLRNGDAYSADDVRMILSTADQLRLEVIPLVQTIGHLEWLLKTHKFYSFRENPRNPQSVCVSNAEAVDLVLHLVDQVMAFHKDYGQFVHIGADEVYQYGECSRCVARMNKENLRREDLLLRHIVNVSKHVKTKYGKNVLMWHDMIANIDASLAEKYDLKNLVEPVLWNYAEDLEAFLPMGIWETFSAMVPYMWGSSAFKGADSPTRYHSNVKHYLENHISWIKQMSTASEKFREFRGLIFTGWQRYDHFAVLCEFLPIGIPSLTVNMLTIRNGRFDASVNDQAISIMQCVTGSDVKGDLYGCRFPGSDIYHHVQLLHEKKGEIEKLLLQQSVQGWLSNIAIDYNMSSPWYMNLIVPDLMTYKNQMIELSLNIRQAMLEMFYENAVDEFLFTYVDPVINHLQRLLDRATAIQRRDEFPVRPFPIKRTIDTTR
notes: recombinant C-terminally His-tagged, secreted from Pichia; residues 85–620 (long) or 135–620 (short) of the predicted protein

Columns and labels:
T. suis HEX-2 = biological target: T1, T. suis HEX-2 (Trichuris suis, UniProt A0A085NCI8); experiment: pNP-β-GalNAc hydrolysis assay with purified enzyme, Ki fitted in Prism; format: biochemical
T1 construct: gene M514_07548; recombinant C-terminally His-tagged, secreted from Pichia; residues 85–620 (long) or 135–620 (short) of the predicted protein

[1] = substrate: CC(=O)N[C@H]1[C@H](Oc2ccc([N+](=O)[O-])cc2)O[C@H](CO)[C@H](O)[C@@H]1O; experiment: Michaelis–Menten kinetics, absorbance assay with purified enzyme (apparent Km); format: biochemical, Trichuris suis

Row | Molecule | Ki (T. suis HEX-2) [nM] | Km [1] [µM]
1 | GalNAc-isofagomine | 600 | 
2 | B1 |  | 900
